Test results published in PubChem BioAssay AID463204 (Broad Institute, 2010).
Activity calls are given as the source filed them.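 How the source made its calls: active means AC50 no more than ten times the top concentration tested, that is within one log above it; inconclusive means flat curve fit with activity between 30% and 70%, or invalid poor fit; inactive means AC50 beyond ten times the top tested dose.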

tested on: S. cerevisiae Mot1-301 ts growth rescue, BacTiter-Glo ATP luminescence; experiment: restored Mot1-301 yeast growth at 38.5C – whole organism, S. cerevisiae, Mot1-301 ts mutant, luminescence, dose retest, SUMOylation pathway inhibitor project, confirmation (AID 463204);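 further: growth at restrictive 38.5 degrees C of Mot1-301 OY566 strain; actives raise luminescence by restoring growth of the ts mutant at high temperature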

Structure (SMILES) | AC50
COc1ccc(CN(CC(=O)NCC2CCCO2)C(=O)CCC(=O)Nc2cc(C)on2)cc1 (configuration not stated) | > 42 µM (inactive)
COc1cc2c(cc1OC)C(c1ccccc1[N+](=O)[O-])N(C(C)=O)CC2 (configuration not stated) | > 42 µM (inactive)
Cc1ccc(C(=O)NNc2ncnc3c2cnn3C)cc1 | > 42 µM (inactive)
COc1ccc(C(=O)N/C(=C\c2cn(C)c3ccccc23)C(=O)OCCN(C)C)cc1 | > 42 µM (inactive)
N=c1c[n+](C2CCCCC2)[n-]o1 | > 42 µM (inactive)
CS(=O)(=O)N(CC(=O)NCCSCc1ccccc1)c1ccc2c(c1)OCO2 | > 42 µM (inactive)
COc1cc(C(=O)OCC(=O)NC(C)CCc2ccccc2)cc(OC)c1OC (configuration not stated) | > 42 µM (inactive)
O=C(NCCCN1CCOCC1)C1CCC(=O)N1CCc1ccccc1 (configuration not stated) | > 42 µM (inactive)
COc1ccccc1C(=O)N(NC(=O)Oc1ccccc1)C(C)(C)C | > 42 µM (inactive)
O=C(CNC(=O)c1ccco1)OCC(=O)c1cccc2ccccc12 | > 42 µM (inactive)
CCC(=O)N(Cc1ccc2c(c1)OCO2)Cc1cc2cc(OC)ccc2[nH]c1=O | > 42 µM (inactive)
CC(=O)N1CCC2(CC1)CC(=O)c1cc(OCC(=O)N3CCCC3)ccc1O2 | > 42 µM (inactive)
CCOC(=O)c1[nH]c2ccc(Br)cc2c1NC(=O)CCN1CCOCC1 | > 42 µM (inactive)
CCOC(=O)C1=C(N)c2ccccc2CC1C1CCCC1 (configuration not stated) | > 42 µM (inactive)
O=C(COc1cccnc1[N+](=O)[O-])Nc1ccc2c(c1)CCC2 | > 21 µM (inactive)
COc1ccc(N2CC(C(=O)N3CCc4ccccc43)CC2=O)cc1 (configuration not stated) | > 42 µM (inactive)
Cn1c(CN2CCOCC2)nnc1SCC(N)=O | > 42 µM (inactive)
Fc1ccc(-c2nnc3ccc(N4CCCC4)nn23)cc1 | > 42 µM (inactive)
CCOc1ccc(NC(=O)Nc2ccc3nsnc3c2)cc1 | > 42 µM (inactive)
O=C1CC(=O)C(n2cncn2)C(c2ccc(Cl)cc2Cl)C1 (configuration not stated) | > 42 µM (inactive)
O=C(N/N=C/C(Br)=C/c1ccccc1)c1n[nH]c2c1CCC2 | 6.68 µM
CCn1c(SCC(=O)Nc2ccc(OCc3ccccc3)cc2)nnc1-c1ccco1 | > 42 µM (inactive)
O=C(COC(=O)c1cccc(Br)c1)Nc1ccc2[nH]c(=O)[nH]c2c1 | > 42 µM (inactive)
CCOC(=O)c1c(C)[nH]c(O)c1C=Nc1ccccc1 | > 42 µM (inactive)
CCOC(=O)c1ccc(NC(=O)NCc2ccncc2)cc1 | > 42 µM (inactive)
NC1=NC2(CCCC2)N=C(Nc2ccccc2)N1 | > 42 µM (inactive)

Structure (SMILES) | AC50
CC(C)CCNC(=O)Cn1c(=O)oc2cc(S(=O)(=O)N3CC(C)CC(C)C3)ccc21 (configuration not stated) | > 42 µM (inactive)
O=C(NCc1cccnc1)Nc1ccccc1 | > 42 µM (inactive)
Cc1ccc(NC(=O)NNC(=O)Cn2nc(-c3ccccc3)c(-c3ccccc3)c(C#N)c2=O)cc1 | > 42 µM (inactive)
CN(C)C(=O)c1cc(C(=O)c2ccc(C(F)(F)F)cc2F)c[nH]1 | > 42 µM (inactive)
Cc1ccc(-c2csc3ncn(CC(=O)N4CCOCC4)c(=O)c23)cc1 | > 42 µM (inactive)
Cc1cccc(OCCN2CSC(=S)N(C)C2)c1 | 3.7 µM
O=C1CC(c2cccc(Br)c2)C2=C(COC2=O)N1 (configuration not stated) | > 42 µM (inactive)
CC(C)(C)n1nnnc1C(c1ccc(Cl)cc1)N(Cc1cccnc1)Cc1ccco1 (configuration not stated) | 7.98 µM
COc1cc(C(=O)Nc2ccc3c(c2)OCCO3)ccc1-n1cnnn1 | > 42 µM (inactive)
CN1CCN(CC(=O)N2c3ccccc3C(=O)Nc3cccnc32)CC1 | > 42 µM (inactive)
COc1ccc(NC(=O)CSc2nnc(-c3ccccn3)n2-c2ccccc2)cc1OC | > 42 µM (inactive)
Cc1[nH]oc(=O)c1N=Nc1c(Cl)cccc1Cl | 6.02 µM
N#CC(CC(=O)c1ccc(F)cc1)c1ccc2c(c1)OCO2 (configuration not stated) | 40.2 µM
O=C(NCc1ccccc1Cl)C(=O)NCC1CCCN1S(=O)(=O)c1cccs1 (configuration not stated) | > 42 µM (inactive)
COc1ccc(/C=N/NC(=O)c2c(C)nc3ccccn23)cc1[N+](=O)[O-] | > 42 µM (inactive)
COc1ccc(CNC(=O)c2cc(=O)c3cc(C)cc(C)c3o2)cc1 | > 42 µM (inactive)
COC(=O)c1ccc(CSc2nnnn2-c2ccccc2)o1 | > 42 µM (inactive)
CN(C)/C=C/C(=O)c1ccncc1 | > 42 µM (inactive)
CN(C)S(=O)(=O)c1ccc(Cl)c(NC(=O)CN2C(=O)NC(C)(C3CC3)C2=O)c1 (configuration not stated) | > 42 µM (inactive)
CC1CCN(CCCCOc2ccc(F)cc2)CC1 | > 42 µM (inactive)
O=C(Nc1ccccc1)N1CCN(CCc2ccccc2)CC1 | > 42 µM (inactive)
C/C=C\C=C/C(=O)Nc1cccc(C2=NOC3(C2)C[C@@H](C(N)=O)N(C(=O)c2ccccc2)C3)c1 (some centres not stated) | > 42 µM (inactive)
O=C(CSc1ncccn1)c1ccccc1Br | > 42 µM (inactive)
O=C(NCc1csc(-c2cccs2)n1)Nc1ccc(F)cc1F | > 42 µM (inactive)
Fc1ccc(-c2cc(C(F)(F)F)nc(NCc3cccs3)n2)cc1 | > 42 µM (inactive)
Nc1cc(Cl)ccc1N1CCOCC1 | > 42 µM (inactive)

Structure (SMILES) | AC50
COc1ccc2c(c1)[C@@]13CCC=C[C@H]1[C@@H](C2)NCC3 | > 42 µM (inactive)
COc1cc(-c2nnc(SCC#CCO)o2)cc(OC)c1OC | > 42 µM (inactive)
O=C(CSc1nc2ncccc2[nH]1)NC1CCCCC1 | > 42 µM (inactive)
CCOC(=O)c1nc(Nc2ccccc2CC)c2ccccc2n1 | > 42 µM (inactive)
CC(=O)N1CCc2cc(S(=O)(=O)NCCC3=CCCCC3)ccc21 | > 42 µM (inactive)
O=C(O)c1ccc(N=C2NC(=O)C(CO)(CO)S2)cc1 | > 42 µM (inactive)
COC(=O)CCCC(=O)NCC1(N(C)Cc2ccccc2)Cc2ccccc2C1 | > 42 µM (inactive)
O=C(Nc1cccc(C(=O)Nc2ccc(F)cc2F)c1)c1ccccc1 | > 42 µM (inactive)
O=C(O)c1ccc(S(=O)(=O)N2CCN(c3ccccn3)CC2)cc1 | > 42 µM (inactive)
COCc1[nH][nH]c(=O)c1C=Nc1ccc(OC(F)(F)F)cc1 | > 42 µM (inactive)
CCOC(=O)NNC(=O)CCn1c2c(c3ccccc31)CCCC2 | > 42 µM (inactive)
Cc1c(C(=O)N2CCOCC2)c(S(=O)(=O)Nc2cccc(Br)c2)c(C)n1C | > 42 µM (inactive)
COc1ccc(C2CC(c3cccs3)=NN2C(=O)c2ccccc2)cc1OC (configuration not stated) | > 42 µM (inactive)
O=C1NC(Cc2c[nH]c3ccccc23)C(=O)N1Cc1ccc(CN2C(=O)NC(Cc3c[nH]c4ccccc34)C2=O)cc1 (configuration not stated) | > 42 µM (inactive)
Cc1ccc(C2=NN(CC(=O)NCc3cccs3)C(=O)CC2)cc1 | > 42 µM (inactive)
COc1ccccc1/C=C/C(=O)NC(=S)N1CCOCC1 | > 42 µM (inactive)
CCc1nnc2n1N=C(c1ccc(Cl)cc1)CS2 | > 42 µM (inactive)
COc1cccc(/C=C2\SC(N3CCC(C)CC3)=NC2=O)c1OC | > 42 µM (inactive)
CCn1c(SCC(=O)OC)nnc1-c1ccncc1 | > 42 µM (inactive)
COc1ccc(S(=O)(=O)N2CCc3cc4c(cc3C2C)OCCCO4)cc1 (configuration not stated) | > 42 µM (inactive)
O=C(OCC#CCSc1nnc(-c2ccccc2)o1)c1cc2ccccc2o1 | > 42 µM (inactive)
CN(C)C(=O)CN1C(=O)c2cccc3cccc1c23 | > 42 µM (inactive)
C[C@@]12C(=O)Nc3cc(F)ccc3C(=O)N1[C@H]1c3ccccc3OC[C@@H]1[C@@H]2c1ccccc1 | 5.7 µM
O=C(NCc1ccccn1)C1CC(c2ccc(Cl)c(Cl)c2)=NO1 (configuration not stated) | > 42 µM (inactive)
C/C(=C\C(=O)N1CCc2ccccc21)C(=O)O | > 42 µM (inactive)
Cc1cc(C)cc(C(=O)N2CCC3(CC2)NCCc2[nH]cnc23)c1 | > 42 µM (inactive)

Structure (SMILES) | AC50
O=C(/C=C/c1cccc([N+](=O)[O-])c1)NCCSCc1ccc(Cl)cc1Cl | > 42 µM (inactive)
C=CCN(C(=O)CNC(=O)c1ccco1)C(C(=O)NC1CCCCC1)c1ccccc1 (configuration not stated) | > 42 µM (inactive)
CC(C)C(CC(=O)NCc1ccco1)c1ccco1 (configuration not stated) | > 42 µM (inactive)
O=C(CCC(=O)Nc1ccc(F)cc1)N/N=C/c1cccs1 | > 42 µM (inactive)
C[C@@]12C(=O)Nc3cc(Cl)ccc3C(=O)N1[C@H]1c3ccccc3OC[C@@H]1[C@@H]2c1ccccc1 | 1.98 µM
CS(=O)(=O)N(CC(=O)N1CCCC1)c1cccc(Cl)c1Cl | > 42 µM (inactive)
CCN(Cc1ccccc1)Cc1ccc(OCc2ccccc2)c(OC)c1 | > 42 µM (inactive)
CCNc1ccccc(C(=O)/C=C/c2ccc3c(c2)OCO3)c1=O | > 42 µM (inactive)
COc1ccc(-c2cc(C(=O)Nc3cc(C)ccc3O)no2)cc1 | > 42 µM (inactive)
O=C(CN1CCN(c2nc(-c3ccccc3)cs2)CC1)NNC(=O)c1ccc(Br)cc1 | > 42 µM (inactive)
C[n+]1c(-c2ccccc2)cc(CCCCc2cc(-c3ccccc3)[n+](C)c(-c3ccccc3)c2)cc1-c1ccccc1 | > 21 µM (inactive)
COCC(C)n1c(SCC(=O)NNC(=O)c2ccccc2)nc2ccccc2c1=O (configuration not stated) | > 42 µM (inactive)
Cc1cccc(N=Nc2ccc(N(C)C)cc2)c1 | > 42 µM (inactive)
CCN(CC)C1CCN(C(=O)c2cc(COc3ccc(-n4cncn4)cc3)on2)C1 (configuration not stated) | > 42 µM (inactive)
CC1=NC2(CCCc3c2no[n+]3[O-])N(O)C1(C)C (configuration not stated) | > 42 µM (inactive)
Cn1c(CN2CCOCC2)nnc1SCC(=O)Nc1cc(Cl)ccc1Cl | > 42 µM (inactive)
COCCN1C(=O)/C(=C/c2cc3c(cc2Br)OCO3)NC1=S | > 42 µM (inactive)
O=C(NC1CCCCC1)c1ccc2c(=O)n(CC3CCCO3)c(=O)[nH]c2c1 (configuration not stated) | > 42 µM (inactive)
COc1ccccc1NC(=S)N(Cc1ccccc1)Cc1cccs1 | > 42 µM (inactive)
CCc1noc(C)c1C(=O)Nc1nc(-c2ccc(F)cc2)c(C)s1 | > 42 µM (inactive)
CC1(C(=O)Nc2cccc(-n3cnnn3)c2)Cc2ccccc2C(=O)O1 (configuration not stated) | > 42 µM (inactive)
O=C(O)/C=C\C(=O)NC1CCCCC1 | > 42 µM (inactive)
Fc1ccccc1-n1cc(-c2ccccc2)[nH]c1=S | > 42 µM (inactive)
O=C(O)c1ccc(Cl)c(NCc2cccs2)c1 | > 42 µM (inactive)
